In assay [1] the target is Serine/threonine-protein kinase 25 (Homo sapiens) (UniProt O00506).
For assay [2], the target named is 5'-AMP-activated protein kinase catalytic subunit alpha-2 (Homo sapiens) (UniProt P54646).
Assay [3] has as its target Calcium/calmodulin-dependent protein kinase kinase 2 (Homo sapiens, UniProt Q96RR4).
Assay [4] deals with Cyclin-dependent kinase-like 1 (Homo sapiens) (UniProt Q00532).
The target of assay [5] is Ribosomal protein S6 kinase alpha-3 (Homo sapiens) (UniProt P51812).
For assay [6], the target named is T1, Calcium/calmodulin-dependent protein kinase type IV (Homo sapiens) (UniProt Q16566).
T1 sequence (whole entry): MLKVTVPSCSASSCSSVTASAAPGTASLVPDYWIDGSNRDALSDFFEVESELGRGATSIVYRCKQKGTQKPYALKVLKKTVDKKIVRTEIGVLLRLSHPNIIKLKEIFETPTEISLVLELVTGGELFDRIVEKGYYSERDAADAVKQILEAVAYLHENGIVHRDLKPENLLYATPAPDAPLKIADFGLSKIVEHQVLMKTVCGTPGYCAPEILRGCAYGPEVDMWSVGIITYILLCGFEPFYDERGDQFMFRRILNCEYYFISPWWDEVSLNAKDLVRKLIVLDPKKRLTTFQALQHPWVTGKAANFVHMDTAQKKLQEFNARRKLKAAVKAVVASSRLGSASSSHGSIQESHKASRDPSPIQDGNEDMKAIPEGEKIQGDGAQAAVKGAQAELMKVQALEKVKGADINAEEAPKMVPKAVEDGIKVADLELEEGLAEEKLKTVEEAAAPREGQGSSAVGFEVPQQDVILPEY

Assay [7] deals with Calcium/calmodulin-dependent protein kinase type II subunit gamma (Homo sapiens) (UniProt Q13555).
Assay [8] concerns the target Serine/threonine-protein kinase 38 (Homo sapiens) (UniProt Q15208).
Assay [9] has as its target Serine/threonine-protein kinase PAK 6 (Homo sapiens) (UniProt Q9NQU5).
The target in assay [10] is T2, Serine/threonine-protein kinase VRK3 (Homo sapiens) (UniProt Q8IV63).
T2 sequence (whole entry): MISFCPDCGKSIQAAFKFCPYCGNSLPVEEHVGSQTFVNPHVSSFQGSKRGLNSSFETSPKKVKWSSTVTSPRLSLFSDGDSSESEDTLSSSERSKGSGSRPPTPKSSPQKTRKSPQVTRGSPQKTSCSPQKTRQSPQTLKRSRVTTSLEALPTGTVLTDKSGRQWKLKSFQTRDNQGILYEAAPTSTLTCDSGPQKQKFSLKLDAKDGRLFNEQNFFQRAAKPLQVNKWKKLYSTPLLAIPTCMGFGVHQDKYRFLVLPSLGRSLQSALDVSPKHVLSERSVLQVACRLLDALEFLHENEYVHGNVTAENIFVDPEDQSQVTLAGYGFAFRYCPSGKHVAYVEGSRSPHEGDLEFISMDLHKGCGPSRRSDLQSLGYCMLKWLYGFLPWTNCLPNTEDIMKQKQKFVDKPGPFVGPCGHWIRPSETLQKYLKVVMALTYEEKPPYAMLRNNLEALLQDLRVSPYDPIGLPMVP

Assay [11] deals with T3, Serine/threonine-protein kinase VRK1 (Homo sapiens) (UniProt Q99986).
T3 sequence (whole entry): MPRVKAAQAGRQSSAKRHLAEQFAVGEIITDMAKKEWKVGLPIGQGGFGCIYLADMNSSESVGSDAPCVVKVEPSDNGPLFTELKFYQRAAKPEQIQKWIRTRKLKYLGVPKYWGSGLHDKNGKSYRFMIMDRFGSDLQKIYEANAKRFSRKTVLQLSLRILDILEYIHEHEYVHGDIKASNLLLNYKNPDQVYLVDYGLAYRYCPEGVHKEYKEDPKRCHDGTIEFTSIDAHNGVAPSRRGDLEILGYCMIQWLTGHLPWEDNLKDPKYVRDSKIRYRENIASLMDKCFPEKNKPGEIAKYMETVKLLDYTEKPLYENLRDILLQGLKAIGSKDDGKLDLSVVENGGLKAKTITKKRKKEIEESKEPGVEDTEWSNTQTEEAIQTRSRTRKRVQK

Our source for the ΔTm values is ChEMBL document CHEMBL1145498, “A systematic interaction map of validated kinase inhibitors with Ser/Thr kinases” (Proc Natl Acad Sci U S A, 2007).

As usually defined, the ΔTm is the change in melting temperature against a reference sample.

Calcium/calmodulin-dependent protein kinase type II subunit gamma (Homo sapiens), sequence (Q13555 whole entry): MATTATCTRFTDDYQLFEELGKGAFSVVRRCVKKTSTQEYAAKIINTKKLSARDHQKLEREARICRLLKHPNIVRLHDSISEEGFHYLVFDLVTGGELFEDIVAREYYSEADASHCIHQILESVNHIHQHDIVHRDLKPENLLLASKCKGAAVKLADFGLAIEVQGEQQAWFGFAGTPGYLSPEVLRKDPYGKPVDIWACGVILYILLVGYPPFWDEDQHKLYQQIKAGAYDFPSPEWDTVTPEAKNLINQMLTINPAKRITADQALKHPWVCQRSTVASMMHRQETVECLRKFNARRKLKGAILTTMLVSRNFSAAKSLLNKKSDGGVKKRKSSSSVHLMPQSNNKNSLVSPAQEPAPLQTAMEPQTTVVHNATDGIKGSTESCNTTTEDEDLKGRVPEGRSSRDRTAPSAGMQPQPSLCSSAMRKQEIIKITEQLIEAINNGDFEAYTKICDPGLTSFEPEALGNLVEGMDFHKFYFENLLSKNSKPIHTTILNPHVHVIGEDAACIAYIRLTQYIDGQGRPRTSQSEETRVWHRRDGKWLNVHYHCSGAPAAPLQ
Serine/threonine-protein kinase PAK 6 (Homo sapiens), sequence (Q9NQU5 whole entry, looked up): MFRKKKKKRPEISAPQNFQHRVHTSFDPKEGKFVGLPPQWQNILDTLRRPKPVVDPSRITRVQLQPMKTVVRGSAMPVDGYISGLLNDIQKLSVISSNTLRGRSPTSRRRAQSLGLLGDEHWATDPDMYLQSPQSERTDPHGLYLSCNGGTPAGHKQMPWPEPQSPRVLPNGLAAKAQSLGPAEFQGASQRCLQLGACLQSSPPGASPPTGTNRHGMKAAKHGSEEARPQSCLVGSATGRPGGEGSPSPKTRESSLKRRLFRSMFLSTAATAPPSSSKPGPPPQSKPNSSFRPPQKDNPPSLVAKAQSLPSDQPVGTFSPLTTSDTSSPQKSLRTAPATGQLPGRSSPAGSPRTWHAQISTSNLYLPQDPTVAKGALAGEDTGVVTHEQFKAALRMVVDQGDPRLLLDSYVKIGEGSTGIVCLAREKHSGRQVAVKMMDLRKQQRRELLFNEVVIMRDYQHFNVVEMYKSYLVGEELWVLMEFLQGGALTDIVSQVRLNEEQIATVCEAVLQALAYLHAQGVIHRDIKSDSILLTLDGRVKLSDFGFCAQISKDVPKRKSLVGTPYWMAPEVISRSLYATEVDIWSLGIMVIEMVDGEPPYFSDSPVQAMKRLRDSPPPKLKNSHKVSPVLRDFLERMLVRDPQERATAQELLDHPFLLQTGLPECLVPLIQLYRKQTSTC
Ribosomal protein S6 kinase alpha-3 (Homo sapiens), sequence (P51812 whole entry): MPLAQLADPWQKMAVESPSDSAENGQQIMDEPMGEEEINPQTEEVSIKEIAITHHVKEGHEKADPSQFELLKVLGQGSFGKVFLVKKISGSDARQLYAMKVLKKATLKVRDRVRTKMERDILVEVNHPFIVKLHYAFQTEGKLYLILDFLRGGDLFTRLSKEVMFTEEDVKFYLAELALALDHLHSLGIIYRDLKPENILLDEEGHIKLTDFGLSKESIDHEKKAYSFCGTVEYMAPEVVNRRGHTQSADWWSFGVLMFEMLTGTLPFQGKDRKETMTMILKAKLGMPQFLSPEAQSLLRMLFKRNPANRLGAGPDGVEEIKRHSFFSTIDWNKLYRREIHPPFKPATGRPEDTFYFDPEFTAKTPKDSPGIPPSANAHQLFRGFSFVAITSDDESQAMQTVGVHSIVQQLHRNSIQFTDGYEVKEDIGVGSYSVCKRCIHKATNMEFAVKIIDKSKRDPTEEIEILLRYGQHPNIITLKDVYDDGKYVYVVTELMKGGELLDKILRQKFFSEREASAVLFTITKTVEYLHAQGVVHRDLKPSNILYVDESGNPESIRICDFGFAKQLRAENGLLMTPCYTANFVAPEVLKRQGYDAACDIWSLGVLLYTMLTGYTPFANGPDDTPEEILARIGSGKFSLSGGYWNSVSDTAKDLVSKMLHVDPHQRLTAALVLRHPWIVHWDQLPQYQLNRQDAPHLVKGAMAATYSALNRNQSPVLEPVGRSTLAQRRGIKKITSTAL
5'-AMP-activated protein kinase catalytic subunit alpha-2 (Homo sapiens), sequence (P54646 whole entry, looked up): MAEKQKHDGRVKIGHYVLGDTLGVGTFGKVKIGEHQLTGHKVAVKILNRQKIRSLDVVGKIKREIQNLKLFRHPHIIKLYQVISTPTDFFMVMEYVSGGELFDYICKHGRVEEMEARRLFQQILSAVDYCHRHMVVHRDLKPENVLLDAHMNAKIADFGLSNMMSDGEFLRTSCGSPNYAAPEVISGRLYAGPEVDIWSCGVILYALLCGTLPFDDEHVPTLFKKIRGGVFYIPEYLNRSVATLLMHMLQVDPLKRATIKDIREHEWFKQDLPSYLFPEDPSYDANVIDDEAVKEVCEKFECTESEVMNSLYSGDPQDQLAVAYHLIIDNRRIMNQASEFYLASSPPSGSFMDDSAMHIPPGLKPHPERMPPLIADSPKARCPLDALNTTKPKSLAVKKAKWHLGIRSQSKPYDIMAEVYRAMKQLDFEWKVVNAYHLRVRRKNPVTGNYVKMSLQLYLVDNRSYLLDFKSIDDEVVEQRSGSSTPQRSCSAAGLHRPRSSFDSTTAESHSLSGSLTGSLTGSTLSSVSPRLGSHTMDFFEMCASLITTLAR
Serine/threonine-protein kinase 38 (Homo sapiens), sequence (Q15208 2-465 limits assumed): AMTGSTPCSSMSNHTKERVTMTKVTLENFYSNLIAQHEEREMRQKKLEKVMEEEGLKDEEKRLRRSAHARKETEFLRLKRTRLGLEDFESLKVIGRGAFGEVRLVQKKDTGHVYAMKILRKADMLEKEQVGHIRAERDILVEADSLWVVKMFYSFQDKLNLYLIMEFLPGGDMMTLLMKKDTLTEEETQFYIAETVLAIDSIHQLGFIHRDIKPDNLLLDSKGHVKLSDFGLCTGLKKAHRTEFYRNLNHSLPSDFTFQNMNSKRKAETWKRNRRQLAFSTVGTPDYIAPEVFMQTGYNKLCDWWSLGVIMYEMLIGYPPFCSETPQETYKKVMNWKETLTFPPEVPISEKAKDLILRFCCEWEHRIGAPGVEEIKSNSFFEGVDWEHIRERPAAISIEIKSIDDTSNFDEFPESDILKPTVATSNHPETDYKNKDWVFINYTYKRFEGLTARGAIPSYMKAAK
Cyclin-dependent kinase-like 1 (Homo sapiens), sequence (Q00532 whole entry): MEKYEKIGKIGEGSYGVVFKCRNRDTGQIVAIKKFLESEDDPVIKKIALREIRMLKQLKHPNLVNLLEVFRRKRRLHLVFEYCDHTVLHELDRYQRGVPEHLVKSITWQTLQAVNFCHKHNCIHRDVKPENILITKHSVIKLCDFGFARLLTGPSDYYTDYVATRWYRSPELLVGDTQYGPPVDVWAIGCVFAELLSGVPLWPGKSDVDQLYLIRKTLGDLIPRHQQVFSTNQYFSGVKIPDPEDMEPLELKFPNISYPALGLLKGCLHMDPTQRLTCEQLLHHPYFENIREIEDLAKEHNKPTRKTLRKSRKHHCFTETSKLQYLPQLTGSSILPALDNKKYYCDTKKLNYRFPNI
Calcium/calmodulin-dependent protein kinase kinase 2, sequence (Q96RR4 2-588 limits assumed): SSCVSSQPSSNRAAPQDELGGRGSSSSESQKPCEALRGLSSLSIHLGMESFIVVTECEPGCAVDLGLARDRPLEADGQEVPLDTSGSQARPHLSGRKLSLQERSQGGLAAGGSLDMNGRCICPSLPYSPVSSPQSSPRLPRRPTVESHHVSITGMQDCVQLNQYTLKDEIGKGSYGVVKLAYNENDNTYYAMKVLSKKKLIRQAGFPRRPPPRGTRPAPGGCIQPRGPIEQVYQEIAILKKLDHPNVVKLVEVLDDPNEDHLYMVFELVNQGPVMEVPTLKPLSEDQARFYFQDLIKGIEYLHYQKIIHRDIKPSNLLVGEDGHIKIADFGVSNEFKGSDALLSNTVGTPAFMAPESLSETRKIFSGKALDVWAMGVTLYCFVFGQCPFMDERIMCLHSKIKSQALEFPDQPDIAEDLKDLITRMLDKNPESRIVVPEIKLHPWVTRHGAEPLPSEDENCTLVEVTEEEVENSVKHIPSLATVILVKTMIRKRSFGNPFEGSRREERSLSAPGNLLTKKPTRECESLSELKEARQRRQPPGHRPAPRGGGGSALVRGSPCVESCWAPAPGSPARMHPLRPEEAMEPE
Serine/threonine-protein kinase 25 (Homo sapiens), sequence (O00506 whole entry, looked up): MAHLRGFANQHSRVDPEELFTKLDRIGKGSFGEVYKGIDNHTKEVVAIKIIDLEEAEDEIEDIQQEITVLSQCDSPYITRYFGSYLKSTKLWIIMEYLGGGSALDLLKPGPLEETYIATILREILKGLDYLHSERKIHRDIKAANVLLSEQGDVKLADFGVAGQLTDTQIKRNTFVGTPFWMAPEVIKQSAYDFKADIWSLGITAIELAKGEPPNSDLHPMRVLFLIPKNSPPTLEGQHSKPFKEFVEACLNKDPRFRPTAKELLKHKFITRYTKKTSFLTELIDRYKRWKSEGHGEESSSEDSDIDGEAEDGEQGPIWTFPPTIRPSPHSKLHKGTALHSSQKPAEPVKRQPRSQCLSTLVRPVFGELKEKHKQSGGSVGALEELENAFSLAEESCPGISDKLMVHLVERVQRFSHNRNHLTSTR

With `COc1cc2ncnc(Nc3cccc(O)c3)c2cc1OC`, the shift in melting temperature (ΔTm) in [1] was 0.6 °C; in assay [2] it was -0.5 °C; in [3] it was 1.1 °C; in [4], -0.2 °C; in [5], 0.9 °C; in assay [6], 0 °C. Further, the ΔTm in assay [7] was found to be 0.5 °C; in [8] it was 0.4 °C.
For the compound `O=C(O)Cc1ccc(O)c([N+](=O)[O-])c1`, the ΔTm was 0.1 °C in [2]; -0.1 °C in assay [3]; 1.2 °C in assay [4]; -0.1 °C in assay [5]; 3.3 °C in assay [6]; -0.9 °C in assay [9]. For the same compound, the ΔTm is -0.3 °C in assay [10], -0.1 °C in assay [7], 2 °C in assay [8] and 0.4 °C in assay [11].
Regarding `Cn1cc(/C=C2/C(=O)Nc3ccc(S(N)(=O)=O)cc32)c2ccccc21`, the ΔTm is 8.3 °C in [2]; 3.5 °C in [3]; 0.2 °C in [4]; 7.8 °C in assay [5]; 1.1 °C in assay [6]; -0.6 °C in [9]. Besides, the results for the shift in melting temperature (ΔTm) in assay [7], in [8] and in [11] were 0.5 °C, 3.6 °C and 1.6 °C, respectively.
`C[C@@H](N)[C@H]1CC[C@H](C(=O)Nc2ccncc2)CC1`: the ΔTm was 0 °C in [1]; 0.5 °C in [2]; -0.8 °C in assay [3]; -0.1 °C in assay [4]; -0.1 °C in [6]; -0.2 °C in [9]. Besides, the ΔTm was 0.2 °C in assay [10], 1 °C in [7], 0.4 °C in assay [8] and 0.9 °C in assay [11].
As to `O=C(O)c1cc(NCc2cc(O)ccc2O)ccc1O`, the ΔTm in [2] is -0.8 °C; in assay [3], 0.8 °C; in assay [4], -0.4 °C; in assay [5], -1 °C; in assay [6] it was 0.1 °C; in [9], -0.1 °C. Also, the ΔTm was 0.1 °C in assay [10], 0 °C in assay [7], -0.4 °C in [8] and -0.2 °C in assay [11].
On to `C#Cc1cccc(Nc2ncnc3cc(OCCOC)c(OCCOC)cc23)c1`, for which the thermal shift (ΔTm) was -0.6 °C in assay [2]; 0.1 °C in [3]; 0 °C in assay [4]; -0.2 °C in assay [5]; 0.1 °C in [6]; -0.1 °C in assay [9]. Besides, the ΔTm was 0.2 °C in [10], 0.3 °C in assay [7], -0.3 °C in assay [8] and 0.3 °C in assay [11].
Consider `O=C1Nc2cc(Br)ccc2/C1=C1/Nc2ccccc2/C1=N\O`, for which the ΔTm in assay [2] is 2.4 °C; in assay [3] it was 6.3 °C; in assay [4], 1.5 °C; in assay [5], 0.8 °C; in assay [6] it was -0.5 °C; in [9], 3.4 °C. The ΔTm in assay [10] came to 1.3 °C; in assay [7], 4 °C; in assay [8] it was 2.6 °C; in assay [11] it was 1 °C.
Turning to `O=c1c(-c2ccc(O)cc2)coc2cc(O)cc(O)c12`, the shift in melting temperature (ΔTm) is 1.6 °C in assay [2]; 1.3 °C in assay [3]; -0.1 °C in assay [4]; 0.2 °C in [5]; -0.8 °C in [6]; -0.9 °C in assay [9]. In addition, the ΔTm came out at 1.2 °C in assay [10], 0 °C in [7], 0.6 °C in assay [8] and 0.6 °C in assay [11].
On to `Nc1n[nH]c2nnc(-c3c(-c4ccccc4)nn4ccccc34)cc12`, for which the ΔTm in assay [2] was 0 °C; in assay [3], 0.3 °C; in assay [4], 0.2 °C; in [5] it was 3 °C; in assay [6] it was 0.7 °C; in assay [9] it was 0.1 °C. The ΔTm was -0.1 °C in assay [7], 1.9 °C in [8] and -0.3 °C in assay [11].
As to `Clc1ccc(Nc2nnc(Cc3ccncc3)c3ccccc23)cc1`, the ΔTm in assay [2] is -0.1 °C; in [3], 0.5 °C; in assay [4] it was 0.4 °C; in assay [5] it was -0.4 °C; in assay [6], 1.9 °C; in assay [9] it was 0 °C. Also, the ΔTm in assay [7] is -0.4 °C.
For `Cc1nc(Nc2ncc(C(=O)Nc3c(C)cccc3Cl)s2)cc(N2CCN(CCO)CC2)n1`, the shift in melting temperature (ΔTm) in assay [2] stood at 0.2 °C; in assay [3] it was 0.6 °C; in assay [4], 0.6 °C; in [5] it was 0.9 °C; in assay [6] it was 0.2 °C; in [9], 2.1 °C. The ΔTm in assay [7] was -0.3 °C.
As to `O=c1c(-c2ccc(F)cc2)c(-c2ccncc2)[nH]n1-c1ccc(Cl)cc1`, the ΔTm in [2] was 0.2 °C; in assay [3], 0.2 °C; in assay [4] it was 0.4 °C; in assay [5], 1.2 °C; in assay [6], 0.4 °C; in assay [9] it was -0.4 °C. The ΔTm was -1.1 °C in [10], 0 °C in [7], 0.5 °C in [8] and 0.8 °C in [11].
With `O=C1C=C2C(=Nc3c2c2c(c4c3=NC3=C4CCC=C3)C=NC=2)CC1`, the ΔTm in assay [2] was -0.2 °C; in assay [3], 6.3 °C; in assay [4] it was 6.6 °C; in [5] it was 4.4 °C; in assay [6], 0.8 °C; in assay [9], 3.1 °C. Moreover, the ΔTm in [7] was 2.4 °C; in assay [8], 3.6 °C; in assay [11], 1.1 °C.
`Cc1ccc(NC(=O)c2ccc(CN3CCN(C)CC3)cc2)cc1Nc1nccc(-c2cccnc2)n1`: the ΔTm was 2.6 °C in assay [2]; 2.8 °C in assay [3]; 0.3 °C in assay [4]; 2.1 °C in [5]; -0.5 °C in assay [6]; 4.1 °C in assay [9]. The ΔTm is -0.2 °C in [10], 0.8 °C in [7], 0.7 °C in [8] and 0.4 °C in assay [11].
Take `CCN(CC)CCNC(=O)c1c(C)[nH]c(/C=C2\C(=O)Nc3ccc(F)cc32)c1C`: the ΔTm in assay [2] came out at 7.4 °C; in [3], 6.8 °C; in [4], 0.5 °C; in assay [6] it was 6 °C; in assay [9] it was 3.5 °C; in [7] it was 5.2 °C. Besides, the ΔTm worked out at 5.6 °C in assay [8] and 6.8 °C in [11].
`COc1cc2ncnc(Nc3ccc(F)c(Cl)c3)c2cc1OCCCN1CCOCC1`: the shift in melting temperature (ΔTm) in assay [2] is -0.3 °C; in [3] it was 0.7 °C; in [4] it was 0.2 °C; in assay [5] it was 1.3 °C; in [6], 0.6 °C; in [9], 0 °C. For the same compound, the ΔTm came out at 0.6 °C in [10], 0.4 °C in assay [7], 0.5 °C in assay [8] and 0.5 °C in [11].
Turning to `Nc1nccc(-c2c(-c3ccc(F)cc3)ncn2C2CCNCC2)n1`, the ΔTm in assay [2] is 0.4 °C; in [3], 0.1 °C; in assay [4], 0.4 °C; in assay [5], 0.8 °C; in assay [6], 0.2 °C; in assay [9], -0.5 °C. The ΔTm was 0 °C in [10], 0.1 °C in [7], 0.3 °C in assay [8] and 1.1 °C in assay [11].
`COc1ccc(COc2ccc(Cc3cnc(N)nc3N)cc2OC)cc1`: the ΔTm was 0.1 °C in assay [2]; -0.1 °C in assay [3]; -0.2 °C in assay [4]; -0.3 °C in assay [5]; 0 °C in assay [6]; 0.1 °C in [9]. Further, the shift in melting temperature (ΔTm) in assay [7] was 0.2 °C; in [8], 0.1 °C; in assay [11], -0.2 °C.
